From patent US9957214B2, “Multifunctional radical quenchers” (ARIZONA BOARD OF REGENTS ON BEHALF OF ARIZONA STATE …, priority 2012, dated 2018)
Like-named read-outs stand apart in the source and are kept apart here.

Experiments:
[1] = test system: Friedreich's ataxia lymphoblast cell line GM15850; assay: Cytoprotection (trypan blue exclusion assay) of DEM-treated FRDA lymphocytes; format: cell-based; settings: DEM alone 18 ± 10% viability; for viability at 0.1 µM / viability at 0.5 µM / viability at 2.5 µM / viability at 5 µM: Homo sapiens, GM15850, read-out: Cytoprotection (cell viability, % of untreated control)
Procedure: Cell viability was determined by trypan blue exclusion assay in Friedreich's ataxia lymphoblast cell line GM15850 (Coriell Institute, New Jersey). This technique was used to assess the cytoprotective effects of the tested compounds in cultured cells treated with DEM to induce cell death by GSH depletion. The viability of DEM-treated FRDA cells was determined by their ability to exclude the dye trypan blue. Viable cells exclude trypan blue, whereas non-viable cells take up the dye and stain blue. Briefly, FRDA lymphocytes were grown in RPMI 1640 medium (Gibco) supplemented with 15% fetal calf serum, 2 mM glutamine (HyClone) and 1% penicillin-streptomycin mix (Cellgro). Cells were seeded at a density of 5×10^5 cells/mL and treated with different concentrations of the indicated compounds. Cells were incubated at 37° C. in a humidified atmosphere of 5% CO2 in air for 17 h. After pre-incubation, the cells were treated with 5 mM DEM. Cell viability was determined by staining cells with 0.4% trypan blue using a hemacytometer. At least 500 cells were counted in each experimental group. At the time of assay, <20% of DEM treated cells were viable (trypan blue negative), whereas in non DEM-treated control, >90% cells were viable. Cell viability was expressed as the percentage of control. Data are expressed as means±S.E.M. (n=3).
Cell viability was determined by trypan blue exclusion assay in Friedreich's ataxia lymphoblast cell line GM15850 (Coriell Institute). This technique was used to assess the cytoprotective effects of the compounds in cultured cells treated with diethyl maleate (DEM) to induce cell death by glutathione (GSH) depletion. The viability of DEM-treated FRDA cells was determined by their ability to exclude the dye trypan blue. Viable cells exclude trypan blue, whereas non-viable cells take up the dye and stain blue. […] Benzoquinone analogue 9 afforded greater cyoprotection to FRDA lymphocytes at 5 μM concentration than did the tert-butyl ester 6 (74 vs 50%).

[2] = test system: NADH oxidase (complexes I, III and IV); assay: NADH oxidase activity (complexes I, III and IV) in submitochondrial particles; format: biochemical, bovine
FRDA lymphocytes = assay: Suppression of lipid peroxidation (C11-BODIPY581/591, FACS) in FRDA lymphocytes treated with diethyl maleate; format: cell-based; settings: DEM; for inhibition at 1 µM / inhibition at 5 µM / inhibition at 10 µM: Lymphocyte, read-out: Scavenging activity (%), suppression of lipid peroxidation
Excerpt: Several methods for assaying lipid peroxidation in vitro have been developed (Kuypers et al. (1987) Biochim Biophys Acta. 25, 266-274; Pap et al. (1999) FEBS Lett. 453, 278-282; Drummen et al. (2002) Free RadicBiol Med. 33, 473-490). Almost all of these methods are based on inhibition of free radical-induced oxidation reactions. A widely used fluorescence assay for lipid peroxidation uses lipid soluble cis-parinaric acid as a probe. cis-parinaric acid loses its fluorescence (λexc/em: 320/432 nm) upon interaction with peroxyl radicals and retains its fluorescence in the presence of radical quenchers. cis-parinaric acid is, however, air sensitive, photolabile and absorbs light in the UV region of the spectrum (at ˜320 nm). […] In practical terms, the results obtained using cis-parinaric as a probe for lipid peroxidation are confounded due to the overlapping of the compounds emission spectra with the cis-parinaric emission spectrum. C11-BODIPY^581/591 Oxidation to Measure Lipid Peroxidation To overcome the problem of spectral overlap using cis-parinaric acid, a fluorescence assay for lipid peroxidation using a lipophilic probe belonging to the BODIPY class of fluorescent dyes was used C11-BODIPY^581/591 (4,4-difluoro-5(4-phenyl-1,3-butadienyl)-4-bora-3a, 4a-diaza-s-indacene-3-propionic acid) fluorescent shifts from red to green upon oxidation. C11-BODIPY^581/591 (Molecular Probes, Eugene, Oreg., USA) stock solution concentrations were determined by measuring the absorption of C11-BODIPY^581/591 at 582 nm using a molar extinction coefficient of 140,000 mol^−1 cm^−1 (R. P. Haugland, (1999) Handbook of Fluorescent Probes and Research Chemicals, Molecular Probes, Inc., Eugene, Oreg.). The lipid peroxidation inducer 2,2′-Azobis (2-amidino-propane dihydrochloride) (AAPH) and the antioxidant compound α-tocopherol (α-TOH) were obtained from Sigma (St. Louis, Mo., USA). Phospholipid bilayers were prepared from 1-stearoyl-2-oleoyl-phosphatidylcholine (SOPC) and 1,2-dilinoleoyl-phosphatidylcholine (DLPC) and were purchased from Avanti® polar lipids, Inc., (Alabaster, Ala., USA). Preparation of Liposomes Phosphotidylcholine (PC) liposomes were prepared as described before (Guey-Shuang et al. (1982) Lipids. 17, 403-413). Briefly, DLPC (25 mg) were dissolved in chloroform and the solvent was removed by nitrogen evaporation (˜2 hours) to give a thin film of PC in a round bottom flask. The lipid film was hydrated with 50 mL of 10 mM Tris-HCl (pH 7.4), 100 mM KCl, shaken and sonicated for 15 seconds. The liposomes obtained were filtered several times through […] membrane filter. Measurement of C11-BODIPY^581/591 Oxidation C11-BODIPY^581/591 was incorporated into liposomes and oxidized by peroxyl radicals derived from the decomposition of AAPH in the presence and absence of compounds. Liposomes (1 mg/mL), suspended in 10 mM Tris-HCl (pH 7.4), 100 mM KCl, were transferred to a quartz 1 mL cuvette and placed in a Varian Cary Eclipse fluorometer (Varian, Cary, N.C.) equipped with a thermostatted cuvette holder at 40° C. Liposomes were pre-incubated for 10 min with 200 nM C11-BODIPY^581/591 to allow their incorporation into the lipid phase of the liposomes. After the addition of AAPH (10 mM) the decay of the red fluorescence was followed at λ exc=570 nm, λ em=600 nm. Relative fluorescence units were normalized to 100% intensity. Results obtained were verified by repeating experiments N=3 independent experiments. Measurement of C11-BODIPY^581/591 Oxidation in Cell Culture A quantitative FACS analysis of lipid peroxidation of FRDA lymphocytes, which had been treated with diethyl maleate following incubation in the presence and absence of the test compounds, was measured as described (Khdour et al. (2011) Pharmaceut. Res. 28, 2896-2909). Briefly, FRDA lymphocytes (5×10^5 cell/mL) were treated with the test compounds at final concentrations of 5 and 10 μM and incubated at 37° C. for 16 h in a humidified atmosphere containing 5% CO2 in air. […]

[3] = molecular target: bovine heart mitochondrial complex I (Bos taurus, UniProt P03887+P17694+P42026); assay: Complex I (NADH-Q1 oxidoreductase) inhibition in submitochondrial particles; format: biochemical
Chain of bovine heart mitochondrial complex I (P25708 21-464): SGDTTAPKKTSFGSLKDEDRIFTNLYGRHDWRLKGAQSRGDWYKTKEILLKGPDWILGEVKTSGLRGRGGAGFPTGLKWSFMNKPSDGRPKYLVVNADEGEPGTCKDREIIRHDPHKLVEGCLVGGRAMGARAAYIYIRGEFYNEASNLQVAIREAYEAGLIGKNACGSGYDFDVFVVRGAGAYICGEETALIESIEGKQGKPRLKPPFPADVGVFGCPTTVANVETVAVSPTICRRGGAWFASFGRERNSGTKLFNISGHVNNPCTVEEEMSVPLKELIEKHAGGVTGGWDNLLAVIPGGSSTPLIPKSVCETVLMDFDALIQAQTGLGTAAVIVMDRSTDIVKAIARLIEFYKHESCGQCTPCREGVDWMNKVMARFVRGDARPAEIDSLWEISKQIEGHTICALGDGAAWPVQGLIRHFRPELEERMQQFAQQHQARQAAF
Chain of bovine heart mitochondrial complex I (P42026 38-216): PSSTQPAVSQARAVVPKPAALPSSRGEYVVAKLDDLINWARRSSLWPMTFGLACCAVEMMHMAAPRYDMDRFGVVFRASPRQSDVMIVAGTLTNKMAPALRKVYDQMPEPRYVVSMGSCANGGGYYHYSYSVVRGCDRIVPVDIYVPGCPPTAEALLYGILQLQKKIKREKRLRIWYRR
Chain of bovine heart mitochondrial complex I (P17694 34-463): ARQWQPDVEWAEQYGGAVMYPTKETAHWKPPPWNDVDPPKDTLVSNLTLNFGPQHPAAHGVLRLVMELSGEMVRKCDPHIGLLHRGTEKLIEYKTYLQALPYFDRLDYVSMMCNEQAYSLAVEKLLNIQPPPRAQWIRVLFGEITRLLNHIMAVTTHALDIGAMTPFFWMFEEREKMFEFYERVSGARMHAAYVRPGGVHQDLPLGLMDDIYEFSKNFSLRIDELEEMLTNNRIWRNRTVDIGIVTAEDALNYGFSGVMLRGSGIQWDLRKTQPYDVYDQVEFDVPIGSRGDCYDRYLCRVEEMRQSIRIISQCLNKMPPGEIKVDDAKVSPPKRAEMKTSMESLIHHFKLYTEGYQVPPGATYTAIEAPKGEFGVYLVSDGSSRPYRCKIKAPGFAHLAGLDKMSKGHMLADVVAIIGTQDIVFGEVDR
Chain of bovine heart mitochondrial complex I (P15690 24-727, further chain): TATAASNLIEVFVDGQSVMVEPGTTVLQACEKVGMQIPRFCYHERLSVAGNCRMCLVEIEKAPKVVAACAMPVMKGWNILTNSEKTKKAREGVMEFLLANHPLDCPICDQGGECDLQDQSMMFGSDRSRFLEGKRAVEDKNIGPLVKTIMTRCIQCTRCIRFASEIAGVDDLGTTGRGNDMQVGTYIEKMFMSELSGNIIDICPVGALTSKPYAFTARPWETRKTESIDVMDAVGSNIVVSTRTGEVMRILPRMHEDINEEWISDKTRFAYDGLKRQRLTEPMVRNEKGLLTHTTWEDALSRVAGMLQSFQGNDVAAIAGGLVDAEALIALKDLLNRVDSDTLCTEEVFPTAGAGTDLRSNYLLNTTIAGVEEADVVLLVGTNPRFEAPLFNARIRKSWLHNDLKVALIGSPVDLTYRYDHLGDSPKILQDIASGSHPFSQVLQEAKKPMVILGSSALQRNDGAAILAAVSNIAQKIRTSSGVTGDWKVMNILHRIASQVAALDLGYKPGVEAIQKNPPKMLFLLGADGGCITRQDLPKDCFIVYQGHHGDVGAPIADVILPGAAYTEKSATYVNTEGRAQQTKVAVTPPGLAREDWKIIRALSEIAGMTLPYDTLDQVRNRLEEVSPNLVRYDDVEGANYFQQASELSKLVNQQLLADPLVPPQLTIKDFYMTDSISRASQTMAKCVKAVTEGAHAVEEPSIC
Chain of bovine heart mitochondrial complex I (P03887 whole entry): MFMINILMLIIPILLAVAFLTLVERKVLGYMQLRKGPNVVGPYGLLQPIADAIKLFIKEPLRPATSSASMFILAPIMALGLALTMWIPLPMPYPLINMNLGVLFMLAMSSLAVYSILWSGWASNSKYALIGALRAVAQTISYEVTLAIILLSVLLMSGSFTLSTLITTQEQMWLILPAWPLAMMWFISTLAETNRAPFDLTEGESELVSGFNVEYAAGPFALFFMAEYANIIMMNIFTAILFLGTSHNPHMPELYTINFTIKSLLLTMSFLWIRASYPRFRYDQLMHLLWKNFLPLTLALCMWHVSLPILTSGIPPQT
Chain of bovine heart mitochondrial complex I (P42028 37-212, further chain): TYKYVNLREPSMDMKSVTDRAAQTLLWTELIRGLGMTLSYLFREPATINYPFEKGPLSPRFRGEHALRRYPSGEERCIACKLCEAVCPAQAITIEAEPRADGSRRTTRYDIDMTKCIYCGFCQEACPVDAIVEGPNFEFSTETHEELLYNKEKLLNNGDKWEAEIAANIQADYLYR

CEM leukemia cells = assay: Suppression of ROS production (DCFH-DA flow cytometry) in DEM-treated CEM leukemia cells; format: cell-based; settings: 5 μM; CEM leukemia cells pretreated with DEM
Procedure: FIG. 1. Flow cytometric analysis of CEM leukemia lymphocytes (gray bars) and FRDA lymphocytes (black bars) stained with dichlorodihydrofluorescein diacetate (DCFH-DA) for 20 min, following pretreatment with the test compounds at 5 μM concentration for 16 h, and subsequent treatment with diethyl maleate (DEM) for 60 or 80 min to induce the production of ROS in CEM and FRDA lymphocytes, respectively. Data shown represent the mean±SEM of two different experiments run as duplicates.
Intracellular ROS production was measured in FRDA lymphocyte cells (GM15850, Coriell Cell Repositories, Camden, N.J.) using the oxidant sensitive fluorescent probe 2,7-dichlorodihydrofluorescein diacetate (DCFH-DA) (Molecular Probes) as described previously (Khdour et al. (2011) Pharm. Res. 28, 2896-2909). One mL of FRDA lymphocyte cells or leukemic CEM cells (5×10^5 cells) were plated in a 24-well plate, treated with the test compounds and incubated at 37° C. for 16 h in a humidified atmosphere containing 5% CO2 in air. Cells were treated with 5 mM diethyl maleate (DEM) for 80 min or 60 min respectively, collected by centrifugation at 300×g for 3 min and then washed with phosphate buffered saline (PBS) (Life Technologies). Cells were resuspended in PBS containing 20 mM glucose and incubated at 37° C. in the dark for […] with 10 μM DCFH-DA. Cells were collected by centrifugation at 300×g for 3 min and then washed with PBS. The samples were analyzed immediately by flow cytometry (C6 Accuri, BD Biosciences, San Jose, Calif.), using a 488 nm excitation laser and the FL1-H channel 530±15 nm emission filter. The generation of ROS, mainly peroxides, was detected as a result of the oxidation of DCFH. In each analysis, 10,000 events were recorded after cell debris was electronically gated out. Results obtained were verified by running duplicates and repeating experiments in three independent runs. Results were expressed as percentage of ROS scavenging activity.
The ability of the synthesized analogues to quench ROS and lipid peroxidation was evaluated in FRDA lymphocytes or leukemic CEM cells. These cells were placed under oxidative stress by depleting them of glutathione (GSH) using diethyl maleate (DEM). Depletion of glutathione by treatment FRDA lymphocytes or leukemic CEM cells with DEM has been used to induce oxidative stress in cellular systems by generation of ROS. Intracellular ROS production was measured using the oxidant sensitive fluorescent probe 2,7-dichlorodihydrofluorescein diacetate (DCFH-DA) (Molecular Probes).

[4] = submitochondrial particles, 30° C.; read-out: Complex I inhibition IC50
[5] = submitochondrial particles, 30° C.; read-out: Complex I inhibition Imax

CCCCCCCCCCCCCC1=C(OC)C(=O)C=C(NCCCCCC)C1=O [Compound 20, 5-(hexylamino)-2-methoxy-3-tridecylcyclohexa-2,5-diene-1,4-dione] gave a viability at 0.1 µM [1] of 20 ± 3.2%, a viability at 0.5 µM [1] of 50 ± 5.2% and a viability at 2.5 µM [1] of 66 ± 6.3%. For the same compound, the viability at 5 µM ([1]; 5 μM) was 80 ± 4%, the “NADH oxidase activity (Complex I, III, IV) %” value ([2]; 1 μM) was 74 ± 16% and the “NADH oxidase activity (Complex I, III, IV) %” value ([2]; 5 μM) was 47 ± 3.0%. The inhibition at 1 µM (FRDA lymphocytes) was 14 ± 1.3%, the inhibition at 5 µM (FRDA lymphocytes; 5 μM) was 61 ± 7.5% and the inhibition at 10 µM (FRDA lymphocytes; 10 μM) was 70%. For the same compound, the IC50 [3, 4] was 482 ± 24 µM, the Emax [3, 5] was > 85% and the melting point was 110 °C (dec.).
With CCCCCCCCCCCCCC1=C(NCCCC(=O)OC(C)(C)C)C(=O)C(C)=C(NCCCC(=O)OC(C)(C)C)C1=O [Compound 44, 2,5-bis(tert-butyl 4-aminobutanoate)-3-methyl-6-tridecylcyclohexa-2,5-diene-1,4-dione] the “Cytoprotection (cell viability, % of untreated control)” value ([1]; 1 μM) was 15 ± 2%, the “Cytoprotection (cell viability, % of untreated control)” value ([1]; 5 μM) was 98 ± 6^ % and the “NADH oxidase activity (Complex I, III, IV) %” value ([2]; 1 μM) was 95 ± 2^ %. The “NADH oxidase activity (Complex I, III, IV) %” value ([2]; 5 μM) was 92 ± 3^ %, the “NADH oxidase activity (Complex I, III, IV) %” value ([2]; 10 μM) was 84 ± 3% and the “Scavenging activity (%), suppression of ROS production” value (CEM leukemia cells) was 0%. For the same compound, the “Scavenging activity (%), suppression of lipid peroxidation” value (FRDA lymphocytes; 5 μM) was 8 ± 3% and the “Scavenging activity (%), suppression of lipid peroxidation” value (FRDA lymphocytes; 10 μM) was 13 ± 3^ %.
For CCCCCCCCCCCCCC1=C(NCCCC(=O)OCCCC)C(=O)C(C)=C(NCCCC(=O)OCCCC)C1=O [Compound 47, 2,5-bis(butyl 4-aminobutanoate)-3-methyl-6-tridecylcyclohexa-2,5-diene-1,4-dione], the “Cytoprotection (cell viability, % of untreated control)” value ([1]; 1 μM) was 9 ± 2%, the “Cytoprotection (cell viability, % of untreated control)” value ([1]; 5 μM) was 17 ± 3^ % and the “NADH oxidase activity (Complex I, III, IV) %” value ([2]; 1 μM) was 77 ± 1^ %. For the same compound, the “NADH oxidase activity (Complex I, III, IV) %” value ([2]; 5 μM) was 68 ± 1^ %, the “NADH oxidase activity (Complex I, III, IV) %” value ([2]; 10 μM) was 69 ± 2% and the “Scavenging activity (%), suppression of ROS production” value (CEM leukemia cells) was 25 ± 11%. The “Scavenging activity (%), suppression of lipid peroxidation” value (FRDA lymphocytes; 5 μM) was 7 ± 1% and the “Scavenging activity (%), suppression of lipid peroxidation” value (FRDA lymphocytes; 10 μM) was 19 ± 2^ %.
For CCCCCCCCCCCCCC1=C(O)C(=O)C=C(NCCCC(=O)OC(C)(C)C)C1=O [Compound 6, tert-butyl 4-(4-hydroxy-3,6-dioxo-5-tridecylcyclohexa-1,4-dienylamino)butanoate], the viability at 5 µM ([1]; 5 μM) was 50%, the inhibition at 5 µM (FRDA lymphocytes; 5 μM) was 26 ± 6.7% and the inhibition at 10 µM (FRDA lymphocytes; 10 μM) was 37 ± 1.4%. The IC50 [3, 4] was 10 ± 0.6 µM, the Emax [3, 5] was 64 ± 13% and the melting point was 96 to 97 °C.
With COC1=C2CCCCCCCCCC=CCCCCNC(=CC1=O)C2=O [Compound 39] the melting point was 82 to 84 °C.
Work on C=CCCCCCCCCCc1c(OC)c(OC)cc(OC)c1OC [Compound 34, 1,2,4,5-tetramethoxy-3-(undec-10-enyl)benzene] yielded a melting point of 33 to 34 °C.
CCCCCCCCCCCCCC1=C(O)C(=O)C=C(NCCCCCC)C1=O [Compound 19, 5-(hexylamino)-2-hydroxy-3-tridecylcyclohexa-2,5-diene-1,4-dione] gave a viability at 0.1 µM [1] of 18 ± 2.1%, a viability at 0.5 µM [1] of 22 ± 2.6% and a viability at 2.5 µM [1] of 43 ± 4.4%. For the same compound, the viability at 5 µM ([1]; 5 μM) was 65 ± 5.2%, the “NADH oxidase activity (Complex I, III, IV) %” value ([2]; 1 μM) was 67 ± 6.0% and the “NADH oxidase activity (Complex I, III, IV) %” value ([2]; 5 μM) was 39 ± 1.0%. For the same compound, the inhibition at 1 µM (FRDA lymphocytes) was 2 ± 0.3%, the inhibition at 5 µM (FRDA lymphocytes; 5 μM) was 27 ± 4.5% and the inhibition at 10 µM (FRDA lymphocytes; 10 μM) was 38%. For the same compound, the IC50 ([3]; read-out: Complex I inhibition IC50; submitochondrial particles, 30° C.) was 20 ± 1.7 µM, the Emax ([3]; read-out: Complex I inhibition Imax) was 77 ± 6.2% and the melting point was 70 °C (dec.).
For C=CCCCCCCCCCC1=C(O)C(=O)C=C(OC)C1=O, the melting point was 89 to 90 °C.
